Reference: PMC9636434, “Discovery of small molecule agonists of the Relaxin Family Peptide Receptor 2” (Communications Biology, 2022)
Where “and” joins values, the source holds several entries; their conditions need not be identical. Equal entries are not always repeated. Where two headings read alike, the source gives them in different places.

What was measured:
human ADORA1 = target: T1, human ADORA1 (Homo sapiens, UniProt P30542); experiment: GloSensor cAMP inhibition assay in ADORA1 transiently transfected HEK293T cells; assay type: cell-based; conditions: for RLU: replicates (1)-(4)
T1 sequence (P30542 1-326): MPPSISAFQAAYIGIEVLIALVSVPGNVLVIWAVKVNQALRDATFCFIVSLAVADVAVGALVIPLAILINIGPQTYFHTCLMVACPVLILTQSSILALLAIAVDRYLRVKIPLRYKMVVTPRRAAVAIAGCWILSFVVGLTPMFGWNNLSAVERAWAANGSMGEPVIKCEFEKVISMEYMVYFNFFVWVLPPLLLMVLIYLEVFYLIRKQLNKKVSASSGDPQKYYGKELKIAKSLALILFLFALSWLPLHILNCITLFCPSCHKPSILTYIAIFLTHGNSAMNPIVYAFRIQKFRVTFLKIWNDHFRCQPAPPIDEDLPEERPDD
Method: β-arrestin is an important GPCR adaptor protein that mediates several receptor processes including signaling, desensitization, and trafficking. […] GPCR-mediated β-arrestin recruitment for a panel of 320 human GPCRs was studied in transiently transfected HTLA cells treated with 10 µM compound. The results for all 320 GPCRs tested are summarized in Supplementary Data 1. […] ADORA1 activation by an agonist results in Gαi protein binding, an inhibition of adenylate cyclase and, therefore, a decrease in the cAMP concentration.
Experiments to analyze the cAMP response in RXFP3, RXFP4, and ADORA1 transiently transfected HEK293T cells was performed in the National Institute of Mental Health’s Psychoactive Drug Screening Program, Contract #HHSN-271-2018-00023-C (NIMH PDSP).
ADORA1 activation. cAMP in HEK293T cells transiently transfected with human
ADORA1 was induced by treatment with 0.1 µM of isoproterenol. cAMP inhibition is
Results are reported as raw
RLU values and represent the mean ± SEM of 4 technical replicates.
(1 picture or pasted object on this page, not shown here)

vertebrae and femur = experiment: Biomechanical testing of L3 vertebrae (compression) and femur (3-point bending); assay type: in vivo, mouse; conditions: for Elastic Modulus (MPa) / Ultimate Stress (MPa) / Yield Stress (MPa): individual mice
Description: Previously it was established that C57BL/6 J female mice start losing trabecular bone mass naturally after they reach 8 weeks of age, which provides a model to study the anabolic effects of compound on bone metabolism. The use of females provides a test model with low if any basal INSL3 exposure. […] As previously reported, INSL3 induces an increase in Alp in primary human osteoblasts[20] (Supplementary Fig. 11b) while 6641 induces an increase in Osteocalcin expression (Fig. 5b). After micro-CT scanning, these same lumbar spine and femur from 6641- and vehicle-treated mice were utilized for biomechanical testing. The femurs were tested in a 3-point bending test and the L3 vertebrae in a compression test using an ElectroForce 5500 Test Instrument (TA Instruments, New Castle, DE) with a ramp rate of 0.05 mm/sec and support span of 8.1 mm, running […] software version 8.2. Time, force, and displacement were collected for use in the analysis of mechanical and material properties using custom MATLAB codes (MathWorks, Natick, MA). The Moment of Inertia (MoI) was calculated based on the micro-CT measurements. […] Biomechanical material properties in a vertebrae and b femur of vehicle- and compound- treated female mice. 12 and 15 mice were used in the vehicle and compound groups respectively. p = ns (Student's t-test). (1 picture or pasted object on this page, not shown here)

RXFP2 = RXFP2 (Homo sapiens, UniProt Q8WXD0); experiment: HTRF cAMP assay in HEK-RXFP2 cells (stably transfected; also primary HTS); assay type: cell-based; parameters: FLAG (N); expressed in transfected cells; conditions: for % Eff (cAMP response): experiments (1)-(3), 100 nM INSL3 = 100%, DMSO = 0%; for EC50: HEK-RXFP2
Method: A quantitative high-throughput screening (HTS) of more than 80 K compounds of the NCATS/NIH diversity collection was performed at four concentrations in HEK293T cells stably expressing human RXFP2 to identify candidate agonists. A homogenous time resolved fluorescence (HTRF) assay was used to directly detect compound-induced cAMP accumulation, with forskolin or human recombinant INSL3 serving as positive controls. […] A confirmatory CRE-luciferase cAMP screen was used to eliminate any potential false positives due to assay detection artifacts (Supplementary Fig. 1a).
The cAMP response induced by the compounds was normalized to the cAMP response induced by 100 nM INSL3 as 100% efficacy and the cAMP response induced by DMSO vehicle as 0% efficacy. Emax and EC50 were calculated using four parameter nonlinear fit dose-response stimulation curves. […] Molecular weight (MW).
The HTRF Gs dynamic cAMP assay kit (CisBio, Bedford, MA) was used to measure intracellular cAMP accumulation in HEK293T cells (ATCC, Manassas, VA)[56]. […] The cell stock was verified mycoplasma free and authenticated by ATCC. Transient transfection was accomplished by treating cells in a 6-well plate with a mixture of 2 μg plasmid and 6 μL Lipofectamine 2000 (Invitrogen, Waltham, MA) per manufacturer’s protocol and incubating overnight. For cAMP measurement in 96-well format, HEK293T cells stably transfected with human RXFP2 (HEK-RXFP2), human RXFP1 (HEK-RXFP1), mouse Rxfp1 (HEK-Rxfp1) or transiently transfected with human RXFP1-RXFP2 chimeric receptors were seeded between 7500 and 30,000 cells per well, depending on cell line responsiveness, in serum-free DMEM medium and incubated overnight at 37 °C, 5% CO2. After 18 h, cells were treated with a titration of compound, 2 μM forskolin, or DMSO vehicle. Control wells were also treated with a titration of INSL3 (Phoenix Pharmaceuticals, Burlingame, CA) or human recombinant relaxin 2 (Peprotech, Cranbury, NJ). For the RXFP2 antagonist experiment, cells were co-treated with 0.28 μM compound or 30 nM INSL3 and a titration of the INSL3 B dimer antagonist[38],[39]. For the INSL3 allosteric modulation experiment, cells were co-treated with 0.025, 0.0025, or 0.00025 μM of compound and a titration of INSL3. Cells were incubated for 1 h at 37 °C, 5% CO2, and then kit cAMP-d2 and anti-cAMP antibody were added per manufacturer protocol. Plates were incubated for 1 h at room temperature and the signal was read on a CLARIOstar plate reader (BMG Labtech, Ortenberg, Germany) at 665 and 620 nm emission wavelengths.

[1] = Supplementary Figure 15a, L3 vertebrae compression
[2] = Supplementary Figure 15b, femur 3-point bending

Chain of RXFP2 (Q8WXD0 whole entry): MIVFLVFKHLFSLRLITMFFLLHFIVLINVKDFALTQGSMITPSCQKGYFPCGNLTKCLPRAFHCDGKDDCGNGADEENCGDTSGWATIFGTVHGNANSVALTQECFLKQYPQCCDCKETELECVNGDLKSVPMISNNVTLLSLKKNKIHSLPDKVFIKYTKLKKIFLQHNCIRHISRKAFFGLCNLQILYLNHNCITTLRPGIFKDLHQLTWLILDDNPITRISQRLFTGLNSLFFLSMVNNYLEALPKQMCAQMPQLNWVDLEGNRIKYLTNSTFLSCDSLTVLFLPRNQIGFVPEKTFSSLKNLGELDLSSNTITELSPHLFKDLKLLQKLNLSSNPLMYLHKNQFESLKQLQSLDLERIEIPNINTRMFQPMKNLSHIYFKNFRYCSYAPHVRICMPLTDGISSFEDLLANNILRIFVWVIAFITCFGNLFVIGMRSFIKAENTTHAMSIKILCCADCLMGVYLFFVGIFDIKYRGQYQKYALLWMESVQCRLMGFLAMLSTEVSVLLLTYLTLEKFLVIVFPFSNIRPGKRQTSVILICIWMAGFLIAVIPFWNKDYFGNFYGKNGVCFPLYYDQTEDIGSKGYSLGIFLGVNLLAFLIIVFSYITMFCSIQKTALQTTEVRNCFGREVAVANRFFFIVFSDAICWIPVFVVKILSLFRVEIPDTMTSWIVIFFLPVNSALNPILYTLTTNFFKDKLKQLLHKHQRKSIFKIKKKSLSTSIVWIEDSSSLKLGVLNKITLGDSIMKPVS

O=C1Nc2ccc(-c3cc(C(F)(F)F)cc(C(F)(F)F)c3)cc2C(=O)N2CCN(C(=O)COc3ccc(OC(F)(F)F)cc3I)C[C@@H]12 [compound 6641]
RLU (human ADORA1; Log [M] -5): 501.695 RLU and 432.184 RLU and 479.802 RLU
RLU (human ADORA1; Log [M] -5.52): 440.941 RLU and 426.71 RLU and 354.463 RLU and 361.031 RLU
RLU (human ADORA1; Log [M] -6): 417.406 RLU and 427.258 RLU and 437.11 RLU and 429.447 RLU
RLU (human ADORA1; Log [M] -6.52): 436.015 RLU and 453.53 RLU and 363.767 RLU and 397.155 RLU
RLU (human ADORA1; Log [M] -7): 393.323 RLU and 486.917 RLU and 461.192 RLU and 440.394 RLU
RLU (human ADORA1; Log [M] -7.52): 405.912 RLU and 426.71 RLU and 325.454 RLU and 420.142 RLU
RLU (human ADORA1; Log [M] -8): 517.02 RLU and 436.015 RLU and 373.619 RLU and 451.34 RLU
RLU (human ADORA1; Log [M] -8.52): 377.126 RLU and 431.072 RLU and 331.699 RLU and 385.644 RLU
RLU (human ADORA1; Log [M] -9): 420.424 RLU and 419.005 RLU and 360.091 RLU and 409.777 RLU
RLU (human ADORA1; Log [M] -9.52): 407.648 RLU and 406.938 RLU and 409.777 RLU and 342.346 RLU
cAMP inhibition in ADORA1-HEK293T transfected cells (human ADORA1; cAMP induced by 0.1 µM isoproterenol): failed to detect any significant changes
biomechanical properties of vertebrae and femur (vertebrae and femur; 10 mg/kg PO 3 times per week, 8 weeks): no changes
Elastic Modulus (MPa) (vertebrae and femur; [1]): 153.265 MPa and 132.946 MPa and 187.209 MPa and 254.765 MPa and 121.079 MPa and 235.799 MPa and 193.606 MPa and 184.897 MPa and 170.559 MPa and 170.73 MPa and 159.611 MPa and 225.093 MPa and 77.447 MPa and 155.764 MPa and 159.911 MPa
Ultimate Stress (MPa) (vertebrae and femur; [1]): 14.1661 MPa and 20.1523 MPa and 16.2174 MPa and 22.2452 MPa and 21.0001 MPa and 22.5708 MPa and 23.224 MPa and 14.0488 MPa and 8.99 MPa and 16.5244 MPa and 23.9179 MPa and 31.2724 MPa and 15.8471 MPa and 17.3612 MPa and 20.3053 MPa
Yield Stress (MPa) (vertebrae and femur; [1]): 13.761 MPa and 16.4161 MPa and 15.4319 MPa and 20.1436 MPa and 20.5667 MPa and 22.2148 MPa and 17.2035 MPa and 13.8315 MPa and 7.519 MPa and 16.2742 MPa and 23.3124 MPa and 30.0585 MPa and 14.6642 MPa and 10.8847 MPa and 20.2754 MPa
Elastic Modulus (MPa) (vertebrae and femur; [2]): 7398.92 MPa and 8063.16 MPa and 7172.9 MPa and 5490.74 MPa and 6726.89 MPa and 7530 MPa and 6047.64 MPa and 5378.62 MPa and 5004.38 MPa and 6512.17 MPa and 8227.03 MPa and 6891.88 MPa and 7622.53 MPa and 6100.62 MPa and 7209.2 MPa
Ultimate Stress (MPa) (vertebrae and femur; [2]): 125.43 MPa and 114.53 MPa and 121.49 MPa and 120.23 MPa and 113.48 MPa and 123.54 MPa and 148.86 MPa and 112.5 MPa and 116.79 MPa and 97.01 MPa and 135.98 MPa and 139.67 MPa and 122.96 MPa and 105.85 MPa and 123.21 MPa
Yield Stress (MPa) (vertebrae and femur; [2]): 75.91 MPa and 60.78 MPa and 69.18 MPa and 62.13 MPa and 66.41 MPa and 57.07 MPa and 119.15 MPa and 57.74 MPa and 99.95 MPa and 60.92 MPa and 107.1 MPa and 79.8 MPa and 112.52 MPa and 62.12 MPa and 77.2 MPa
% Eff (cAMP response) (RXFP2; Log [M] -4.60): 104.78% and 100.31% and 87.28%
% Eff (cAMP response) (RXFP2; Log [M] -5.60): 76.57% and 72.45% and 73.51%
% Eff (cAMP response) (RXFP2; Log [M] -6.60): 55.58% and 48.02% and 47.8%
% Eff (cAMP response) (RXFP2; Log [M] -7.60): 15.09% and 15.05% and 13.98%
% Eff (cAMP response) (RXFP2; Log [M] -8.60): 1.51% and 0.43% and 1.99%
% Eff (cAMP response) (RXFP2; Log [M] -9.60): -0.34% and 0.01% and 0.17%
Emax (1)-(3) (RXFP2; individual experiments, % vs. 100 nM INSL3): 115% and 116.5% and 89.48%
EC50 (RXFP2; individual experiments, read-out: EC50 (1)-(3)): 358 nM and 568 nM and 217 nM
Emax (% vs. 100 nM INSL3) (AVERAGE) (RXFP2; mean (± SEM) of 3 independent experiments): 107% and 106.99 ± 8.77% and 106.99%
EC50 (RXFP2; mean (± SEM) of 3 independent experiments, read-out: EC50 (AVERAGE)): 380 nM and < 1000 nM
